Experimental findings from patent publication USRE48842E1, “Pyrimido-pyrrolo-oxazine-dione compound inhibitors of the cystic fibrosis transmembrane conductance regulator protein and uses therefor” (The Regents of the University of California, priority 2011, dated 2021) are described below.

Structures are written as SMILES. pIC50: −log10 of the molar value.

T1 sequence (P13569 whole entry): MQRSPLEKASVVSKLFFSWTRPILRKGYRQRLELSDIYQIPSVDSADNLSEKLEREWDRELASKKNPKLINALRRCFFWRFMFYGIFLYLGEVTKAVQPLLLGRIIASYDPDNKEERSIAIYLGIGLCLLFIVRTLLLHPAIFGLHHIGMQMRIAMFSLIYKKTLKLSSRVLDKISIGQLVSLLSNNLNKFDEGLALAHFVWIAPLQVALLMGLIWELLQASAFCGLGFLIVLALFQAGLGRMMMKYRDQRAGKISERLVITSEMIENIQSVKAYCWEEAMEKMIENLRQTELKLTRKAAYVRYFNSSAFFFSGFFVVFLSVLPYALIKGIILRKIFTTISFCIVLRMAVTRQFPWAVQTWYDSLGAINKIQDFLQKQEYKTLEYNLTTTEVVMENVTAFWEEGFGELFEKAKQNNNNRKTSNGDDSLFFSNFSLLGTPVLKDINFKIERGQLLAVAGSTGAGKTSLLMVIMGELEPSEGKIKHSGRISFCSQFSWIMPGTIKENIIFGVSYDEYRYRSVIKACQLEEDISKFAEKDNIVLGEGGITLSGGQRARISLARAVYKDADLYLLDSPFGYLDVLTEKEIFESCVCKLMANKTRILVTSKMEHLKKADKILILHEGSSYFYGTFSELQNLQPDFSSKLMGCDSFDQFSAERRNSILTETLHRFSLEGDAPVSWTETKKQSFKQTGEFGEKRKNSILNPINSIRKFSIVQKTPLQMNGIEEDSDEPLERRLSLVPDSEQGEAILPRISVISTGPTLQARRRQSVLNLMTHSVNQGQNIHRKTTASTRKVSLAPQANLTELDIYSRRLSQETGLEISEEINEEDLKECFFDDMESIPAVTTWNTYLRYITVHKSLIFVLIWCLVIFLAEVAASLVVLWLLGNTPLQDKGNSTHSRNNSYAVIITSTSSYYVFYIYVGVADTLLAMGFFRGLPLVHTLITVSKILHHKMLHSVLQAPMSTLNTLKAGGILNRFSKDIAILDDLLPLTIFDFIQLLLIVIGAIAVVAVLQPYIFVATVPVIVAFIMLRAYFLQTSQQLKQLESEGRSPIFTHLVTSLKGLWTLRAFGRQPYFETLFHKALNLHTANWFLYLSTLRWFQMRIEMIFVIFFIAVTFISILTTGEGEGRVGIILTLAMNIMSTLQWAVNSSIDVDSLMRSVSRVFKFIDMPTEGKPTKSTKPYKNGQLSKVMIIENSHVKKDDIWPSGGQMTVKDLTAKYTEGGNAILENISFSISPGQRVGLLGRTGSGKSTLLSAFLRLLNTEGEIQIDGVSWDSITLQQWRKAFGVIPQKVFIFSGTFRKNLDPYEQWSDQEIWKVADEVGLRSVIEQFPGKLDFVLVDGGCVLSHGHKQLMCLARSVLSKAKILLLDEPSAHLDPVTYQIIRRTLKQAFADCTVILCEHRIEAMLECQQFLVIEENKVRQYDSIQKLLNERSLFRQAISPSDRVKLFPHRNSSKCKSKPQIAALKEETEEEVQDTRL

The first assay deals with T1, human wildtype CFTR (Homo sapiens, UniProt P13569). Description: Short-circuit current analysis of CFTR inhibition in CFTR-expressing FRT cells. Format: cell-based. More on the design: expressed in transfected cells; host or cells: Fischer rat thyroid (FRT) epithelial cells on Snapwell inserts. The following applies: Determined by short-circuit current assay; read-out: IC50 (μM)^B. The protocol:
Short-Circuit Current—Snapwell inserts containing CFTR-expressing FRT cells were mounted in an Ussing chamber. The hemichambers contained 5 mL of buffer containing 75 mM NaCl and 75 mM Na gluconate (apical) and 150 mM NaCl (basolateral) (pH 7.3), and the basolateral membrane was permeabilized with 250 μg/mL amphotericin B, as described (see, e.g., Sonawane et al., FASEB J 2006, supra). Short-circuit current was recorded continuously using a DVC-1000 voltage clamp (World Precision Instruments) using Ag/AgCl electrodes and 3 M KCl agar bridges.
Current was measured in CFTR-expressing FRT cells in which the basolateral membrane was permeabilized and in the presence of a transepithelial chloride concentration gradient, so that current is a quantitative linear measure of CFTR function. CFTR was activated by forskolin, followed by serial additions of increasing concentrations of test compounds.
CFTR inhibition potency was measured by short-circuit current analysis in FRT epithelial cells expressing human CFTR in presence of a transepithelial chloride gradient and in which the basolateral membrane was permeabilized with amphotericin B. Under these conditions short-circuit current is proportional to CFTR chloride conductance.
As for `CCOC(=O)c1ccc2c(c1)-n1c(-c3ccccc3)c3c(=O)n(C)c(=O)n(C)c3c1C(c1ccc(Br)o1)O2` (racemic) [BPO-25, Ethyl 6-(5-Bromofuran-2-yl)-7,9-dimethyl-8,10-dioxo-11-phenyl-7,8,9,10-tetrahydro-6H-benzo[b]pyrimido[4′,5′:3,4]pyrrolo[1,2-d][1,4]oxazine-2-carboxylate], the IC50 (as a rule, the point on the concentration scale where inhibition reaches its midpoint) worked out at 0.025 µM.

The target in another assay is T1, human wildtype CFTR. Put plainly: Fluorescence plate reader assay of CFTR inhibition (iodide influx). The format is cell-based. More on the design: expressed in transfected cells; host or cells: Fischer rat thyroid (FRT) cells.
Details: not given
As for the experimental part:
Cell Culture and Plate Reader Assay of CFTR Inhibition—Fischer rat thyroid (FRT) cells co-expressing human wild type CFTR and the halide indicator YFP-H148Q were cultured in 96-well black-walled microplates (Corning Costar) at a density of 20,000 cells per well in Coon's modified F12 medium containing 10% fetal bovine serum, 2 mM L-glutamine, 100 U/mL penicillin and 100 μg/mL streptomycin. CFTR chloride conductance was assayed at 48 h after plating on a FluoStar fluorescence plate reader (BMG Lab Technologies) as described (see, e.g., Ma et al., J Clin Invest. 2002, supra). Each well was washed 3 times with PBS, leaving 60 μL PBS. Test compounds were added and incubated with the cells for 45 min. Then, 5 μL of a CFTR-activating cocktail (10 μM forskolin, 100 μM IBMX, 20 μM apigenin in PBS) was added. After 15 min, each well was assayed for iodide influx by recording fluorescence continuously (200 ms per point) for 2 s (baseline) and then for 10 s after rapid addition of 160 μL of isosmolar PBS in which 137 mM chloride was replaced by iodide. The initial rate of iodide influx was computed from fluorescence data by non-linear regression.
Initial testing of the compounds for the capability to inhibit CFTR was performed using a plate-reader assay in which iodide influx was measured in FRT cells co-expressing human wild type CFTR and the iodide-sensing yellow fluorescent protein YFP-H148Q/1152L. […] Table B below provides IC50 values for PPQ and BPO compounds.
The relative IC50 values obtained from the plate reader assay are useful for comparisons. Absolute IC50 values obtained from the plate-reader assay are approximate, generally underestimating compound potency because of assay non-linearities, pH-dependent YFP fluorescence, the use of iodide instead of chloride, and compound dilution at the start of the assay (see, e.g., Galietta et al., Am. J. Physiol. Cell Physiol. 281:C1734-42 (2001)).
Take `CCOC(=O)c1ccc2c(c1)-n1c(-c3ccccc3)c3c(=O)n(C)c(=O)n(C)c3c1C(c1ccc(Br)o1)O2` (racemic) [BPO-25, Ethyl 6-(5-Bromofuran-2-yl)-7,9-dimethyl-8,10-dioxo-11-phenyl-7,8,9,10-tetrahydro-6H-benzo[b]pyrimido[4′,5′:3,4]pyrrolo[1,2-d][1,4]oxazine-2-carboxylate]: the “CFTR inhibition activity (in words)” value is reported as “excellent CFTR inhibition activity”.

As for `Cc1ccc(C2c3c4c(c(-c5ccccc5)n3-c3ccccc3N2C)c(=O)n(C)c(=O)n4C)o1` (stereo not drawn) [PPQ-5, 5,7,9-Trimethyl-6-(5-methylfuran-2-yl)-11-phenyl-5,6-dihydropyrimido[4′,5′-3,4]pyrrolo[1,2-a]quinoxaline-8,10-(7H,9H)-dione], the “CFTR inhibition activity (in words)” value is “weakly active”.

Still in this assay, the particulars now being: Determined by micro-plate reader assay; FRT cells co-expressing human wild type CFTR and YFP-H148Q.
For the compound `CCOC(=O)c1ccc2c(c1)-n1c(-c3ccccc3)c3c(=O)n(C)c(=O)n(C)c3c1C(c1ccc(Br)o1)O2` (racemic) [BPO-25, Ethyl 6-(5-Bromofuran-2-yl)-7,9-dimethyl-8,10-dioxo-11-phenyl-7,8,9,10-tetrahydro-6H-benzo[b]pyrimido[4′,5′:3,4]pyrrolo[1,2-d][1,4]oxazine-2-carboxylate], the pIC50 – broadly, −log10 of the IC50, conventionally taken in molar units – is 7.30.

The compound `Cn1c(=O)c2c(-c3ccccc3)n3c(c2n(C)c1=O)C(c1ccc(I)o1)Oc1ccccc1-3` (stereo not drawn) [BPO-17, 7,9-Dimethyl-6-(5-iodofuran-2-yl)-11-phenyl-6Hbenzo[b]pyrimido[4′,5′-3,4]pyrrolo[1,2-d]oxazine-8,10-(7H,9H)-dione] gave a pIC50 of 6.30.

`Cc1ccc(C2Oc3ccccc3-n3c(-c4ccccc4)c4c(=O)n(C)c(=O)n(C)c4c32)o1` (stereo not drawn) [BPO-18, 7,9-Dimethyl-6-(5-methylfuran-2-yl)-11-phenyl-6H-benzo[b]pyrimido[4′,5′-3,4]pyrrolo[1,2-d]oxazine-8,10-(7H,9H)-dione]: the pIC50 is 6.82.

`Cc1cccc(-c2c3c(=O)n(C)c(=O)n(C)c3c3n2-c2ccccc2OC3c2ccc(Cl)o2)c1` (stereo not drawn) [BPO-19, 6-(5-Chlorofuran-2-yl)-7,9-dimethyl-11-(m-tolyl)-6Hbenzo[b]pyrimido[4′,5′-3,4]pyrrolo[1,2-d]oxazine-8,10-(7H,9H)-dione] gave a pIC50 of 6.43. Compared with the last compound, the pIC50 is 0.39 log units lower.

`Cc1cccc(-c2c3c(=O)n(C)c(=O)n(C)c3c3n2-c2ccccc2OC3c2ccc(C)o2)c1` (stereo not drawn) [BPO-20, 7,9-Dimethyl-6-(5-methylfuran-2-yl)-11-(m-tolyl)-6H-benzo[b]pyrimido[4′,5′-3,4]pyrrolo[1,2-d]oxazine-8,10-(7H,9H)-dione] had a pIC50 of 6.22.

`Cc1ccc(C2Oc3cc([N+](=O)[O-])c(Cl)cc3-n3c(-c4ccccc4)c4c(=O)n(C)c(=O)n(C)c4c32)o1` (stereo not drawn) [BPO-24, 2-Chloro-7,9-Dimethyl-6-(5-methylfuran-2-yl)-3-nitro-11-phenyl-6H-benzo[b]pyrimido[4′,5′-3,4]pyrrolo[1,2-d]oxazine-8,10-(7H,9H)-dione] showed a negative-log IC50 (pIC50) of 6.77. This pIC50 is 0.55 log units higher than that of the compound before.

As to `CCOC(=O)c1ccc2c(c1)-n1c(-c3ccccc3)c3c(=O)n(C)c(=O)n(C)c3c1C(c1ccc(C)o1)O2` (stereo not drawn) [BPO-26, Ethyl 7,9-Dimethyl-8,10-dioxo-6-(5-methylfuran-2-yl)-11-phenyl-7,8,9,10-tetrahydro-6H-benzo[b]pyrimido[4′,5′:3,4]pyrrolo[1,2-d][1,4]oxazine-2-carboxylate], the pIC50 was 7.10.

For the compound `Cc1ccc(C2c3c4c(c(-c5ccccc5)n3-c3ccccc3N2S(C)(=O)=O)c(=O)n(C)c(=O)n4C)o1` (stereo not drawn) [PPQ-1, 7,9-Dimethyl-6-(5-methylfuran-2-yl)-5-(methylsulfonyl)-11-phenyl-5,6-dihydropyrimido[4′,5′-3,4]pyrrolo[1,2-a]quinoxaline-8,10-(7H,9H)-dione], the “IC50 (μm)^A” value was “inactive”.

For the compound `Cc1ccc(C2c3c4c(c(-c5ccccc5)n3-c3ccccc3N2C(=O)CCl)c(=O)n(C)c(=O)n4C)o1` (stereo not drawn) [PPQ-2, 5-(2-Chloroacetyl)-7,9-dimethyl-6-(5-methylfuran-2-yl)-11-phenyl-5,6-dihydropyrimido[4′,5′-3,4]pyrrolo[1,2-a]quinoxaline-8,10-(7H,9H)-dione], the “IC50 (μm)^A” value was “inactive”.

On to `CC(=O)N1c2ccccc2-n2c(-c3ccccc3)c3c(=O)n(C)c(=O)n(C)c3c2C1c1ccc(C)o1` (stereo not drawn) [PPQ-3, 5-Acetyl-7,9-dimethyl-6-(5-methylfuran-2-yl)-11-phenyl-5,6. -dihydropyrimido[4′,5′-3,4]pyrrolo[1,2-a]quinoxaline-8,10-(7H,9H)-dione], for which the “IC50 (μm)^A” value is “inactive”.

Turning to `Cc1ccc(C2c3c4c(c(-c5ccccc5)n3-c3ccccc3N2N=O)c(=O)n(C)c(=O)n4C)o1` (stereo not drawn) [PPQ-4, 7,9-Dimethyl-6-(5-methylfuran-2-yl)-5-nitroso-11-phenyl-5,6. -dihydropyrimido[4′,5′-3,4]pyrrolo[1,2-a]quinoxaline-8,10-(7H,9H)-dione], the pIC50 is 5.70.

`Cc1ccc(C2c3c4c(c(-c5ccccc5)n3-c3ccccc3N2C)c(=O)n(C)c(=O)n4C)o1` (stereo not drawn) [PPQ-5, 5,7,9-Trimethyl-6-(5-methylfuran-2-yl)-11-phenyl-5,6-dihydropyrimido[4′,5′-3,4]pyrrolo[1,2-a]quinoxaline-8,10-(7H,9H)-dione] had a pIC50 of 6.00.

`CCc1ccc(C2Nc3ccccc3-n3c(-c4ccccc4)c4c(=O)n(C)c(=O)n(C)c4c32)o1` (stereo not drawn) [PPQ-6, 7,9-Dimethyl-6-(5-ethylfuran-2-yl)-11-phenyl-5,6-dihydropyrimido[4′,5′-3,4]pyrrolo[1,2-a]quinoxaline-8,10-(7H,9H)-dione] gave a pIC50 of 6.52.

In turn, `Cc1ccc(C2Nc3ccccc3-n3c(-c4ccccc4)c4c(=O)n(C)c(=O)n(C)c4c32)s1` (stereo not drawn) [PPQ-7, 7,9-Dimethyl-6-(5-methylthiophene-2-yl)-11-phenyl-5,6-dihydropyrimido[4′,5′-3,4]pyrrolo[1,2-a]quinoxaline-8,10-(7H,9H)-dione] showed a pIC50 of 5.77.

`Cc1cc(C2Nc3ccccc3-n3c(-c4ccccc4)c4c(=O)n(C)c(=O)n(C)c4c32)oc1C` (stereo not drawn) [PPQ-8, 7,9-Dimethyl-6-(4,5-dimethylfuran-2-yl)-11-phenyl-5,6-dihydropyrimido[4′,5′-3,4]pyrrolo[1,2-a]quinoxaline-8,10-(7H,9H)-dione] gave a pIC50 of 5.77.

`Cn1c(=O)c2c(-c3ccccc3)n3c(c2n(C)c1=O)C(c1ccc(Cl)o1)Nc1ccccc1-3` (stereo not drawn) [PPQ-9, 6(5-Chlorofuran-2-yl)-7,9-dimethyl-11-phenyl-5,6-dihydropyrimido[4′,5′-3,4]pyrrolo[1,2-a]quinoxaline-8,10-(7H,9H)-dione] gave a pIC50 of 6.82. This pIC50 lies 1.05 log units higher than the previous one.

Take `Cn1c(=O)c2c(-c3ccccc3)n3c(c2n(C)c1=O)C(c1ccc(C(F)(F)F)o1)Nc1ccccc1-3` (stereo not drawn) [PPQ-12, 7,9-Dimethyl-11-phenyl-6-(5-trifluoromethylfuran-2-yl)-5,6-dihydropyrimido[4′,5′-3,4]pyrrolo[1,2-a]quinoxaline-8,10-(7H,9H)-dione]: the pIC50 was 6.46.

In the case of `Cn1c(=O)c2c(-c3ccccc3)n3c(c2n(C)c1=O)C(c1ccc(-c2ccccc2)o1)Nc1ccccc1-3` (stereo not drawn) [PPQ-13, 7,9-Dimethyl-11-phenyl-6-(5-phenylfuran-2-yl)-5,6-dihydropyrimido[4′,5′-3,4]pyrrolo[1,2-a]quinoxaline-8,10-(7H,9H)-dione], the “IC50 (μm)^A” value was “inactive”.

Consider `Cn1c(=O)c2c(-c3ccccc3)n3c(c2n(C)c1=O)C(c1ccc(CO)o1)Nc1ccccc1-3` (stereo not drawn) [PPQ-14, 7,9-Dimethyl-11-phenyl-6-(5-hydroxymethylfuran-2-yl)-5,6-dihydropyrimido[4′,5′-3,4]pyrrolo[1,2-a]quinoxaline-8,10-(7H,9H)-dione], for which the “IC50 (μm)^A” value is “inactive”.

For `Cn1c(=O)c2c(-c3ccccc3)n3c(c2n(C)c1=O)C(c1cc2ccccc2o1)Nc1ccccc1-3` (stereo not drawn) [PPQ-15, 6-(Benzofuran-2-yl)-7,9-dimethyl-11-phenyl-5,6-dihydropyrimido[4′,5′-3,4]pyrrolo[1,2-a]quinoxaline-8,10-(7H,9H)-dione], the “IC50 (μm)^A” value is “inactive”.

As for `Cn1c(=O)c2c(-c3ccccc3)n3c(c2n(C)c1=O)C(c1ccc(Br)o1)Nc1ccc([N+](=O)[O-])cc1-3` (stereo not drawn) [PPQ-23, 6-(5-Bromofuran-2-yl)-7,9-dimethyl-2-nitro-11-phenyl-5,6-dihydropyrimido[4′,5′-3,4]pyrrolo[1,2-a]quinoxaline-8,10-(7H,9H)-dione], the pIC50 was 6.77.
